# Measured values from US20240368163A1, “COMPOUNDS AND METHODS FOR MODULATING SPLICING” (REMIX THERAPEUTICS INC., priority 2021, published 2024).
# How the values were obtained:
# [1] = tested on: HTT; test: HiBiT protein abundance assay, HTT; type: cell-based, human; conditions: modified K562 cells
# Method in brief: (§1)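 Protein abundance measured by Nano-Glo HiBiT lytic luminescence after 24 h compound exposure of modified K562 lines, 10000 cells/well, top final dose 10 μM in 3-fold steps. Four-parameter fit of control-normalised response gives concentration reducing abundance to 50% of untreated.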
# [2] = tested on: Target C; test: HiBiT protein abundance assay, Target C; type: cell-based, human; conditions: modified K562 cells
# Method in brief: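 Target protein levels in engineered HiBiT-tagged cells were read by lytic luminescence after 24 h compound exposure (10000 cells/well, 10 μM top final, 3-fold steps, ≤0.25% DMSO). Unmodified K562 served as baseline; four-parameter regression gave concentration reducing abundance to 50%.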
# [3] = tested on: MYB; test: HiBiT protein abundance assay, MYB; type: cell-based, human; conditions: modified K562 cells
# Method in brief: as §1
# [4] = Transwell assay for membrane efflux and permeability; type: in vitro ADME, Canine; conditions: dog; MDCK-BCRP or MDCKII-MDR1 transwell, test compound 1 μM, 2 hours at 37° C.
# Text: Compounds described herein were screened for cell membrane permeability and efflux in a transwell assay using Madin-Darby Canine Kidney (MDCK) cells expressing Breast Cancer Resistance Protein (BCRP) or subclone MDCKII cells expressing Multidrug Resistance Protein 1 (MDR1).
# MDCK-BCRP or MDCKII-MDR1 Cells: The Netherlands Cancer Institute, High Glucose Dulbecco's Modified Eagle's Medium (DMEM): Gibco/Thermo Fisher Scientific, Fetal Bovine Serum (FBS): Coming, Hank's Balanced Salt Solution (HBSS) and Trypsin/EDTA: Gibco/Thermo Fisher Scientific, HTS Transwell-96 Well Permeable Supports: Coming Corporation, Millicell Epithelial Volt-Ohm: Millipore, Cellometer® Vision: Nexcelom Bioscience LLC, Infinite 200 PRO microplate reader: Tecan, MTS2/4 orbital shaker: IKA Labortechnik, HEPES/Penicillin/Streptomycin: Solarbio.
# MDCK-BCRP or MDCKII-MDR1 cells were seeded to each of the wells of the transwell plate at a density of 1.6×10^6 cells/mL and the plate was incubated for 4-8 days with medium changes every two days. To perform the drug transport assay, cell monolayers were first washed three times with pre-warmed HBSS and then incubated with gentle shaking (150 rpm) for 30 min at 37° C. Stock solutions of test compounds (e.g., exemplary compounds of Formulas (I), (II), and (III)) and control compounds (e.g., metoprolol, prazosin, and/or imatinib) were prepared in DMSO and adjusted to a working solution using HBSS. The final concentration of test compounds was 1 μM with DMSO; 0.5%. The plates were incubated at 37° C. for 2 hours.
# [5] = tested on: SMN2; test: Splicing RT-qPCR panel, SMN2 canonical junction (CJ) mRNA; type: cell-based, human; conditions: Homo sapiens, gene panel, CJ qPCR, protocol of Example 142; read-out: SMN2 IC50 (decrease in CJ mRNA levels)
# Method in brief: (§2)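 Splice switching is measured in A673 or K562 cells after 24 h compound exposure (maximum 10 uM, 3-fold steps). Canonical and alternative junction mRNA levels are quantified by RT-qPCR relative to housekeeper and DMSO.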
# [6] = tested on: MYB; test: Splicing RT-qPCR assay, MYB mRNA canonical junction (CJ) and alternative junction (AJ); type: cell-based, human; conditions: Homo sapiens, gene panel, CJ qPCR, protocol of Example 142; read-out: MYB IC50 (decrease in CJ mRNA levels)
# Method in brief: as §2
# [7] = tested on: HTT; test: Splicing RT-qPCR assay, HTT mRNA canonical junction (CJ) and alternative junction (AJ); type: cell-based, human; conditions: Homo sapiens, gene panel, CJ qPCR, protocol of Example 142; read-out: HTT IC50 (decrease in CJ mRNA levels)
# Method in brief: as §2
# [8] = tested on: Target C; test: Splicing RT-qPCR panel, Target C canonical junction (CJ) mRNA; type: cell-based, human; conditions: Homo sapiens, gene panel, CJ qPCR, protocol of Example 142; read-out: Target C IC50 (decrease in CJ mRNA levels)
# Method in brief: as §2
# [9] = Homo sapiens, K562, 24 h, Table 13A
# [10] = Homo sapiens, K562, 24 h, Table 13B
Structure (SMILES),"IC50 ([1]; Table 13A, 24 hours) [µM]","IC50 ([2]; Table 13A, 24 hours) [µM]","IC50 ([3]; Table 13A, 24 hours) [µM]","Papp at 2 h, 1 μM [4] [×10⁻⁶ cm/s]","efflux ratio at 2 h, 1 μM [4]","IC50 [1, 9] [µM]","IC50 [2, 9] [µM]","IC50 [3, 9] [µM]",IC50 [5] [µM],IC50 [6] [µM],"IC50 [1, 10] [µM]","IC50 [2, 10] [µM]","IC50 [3, 10] [µM]",IC50 [7] [µM],IC50 [8] [µM]
CN(c1ccc(-c2cc(F)c(-c3cn[nH]c3)c3cn[nH]c23)nn1)[C@@H]1C[C@H]2CC[C@@H](C1)N2 [Compound 147],< 0.1,< 0.1,< 0.1,< 2,> 5,,,,,,,,,,
"COc1cc(-c2ccc(-c3ccc(N(C)[C@@H]4C[C@H]5CC[C@@H](C4)N5)nn3)c3[nH]ncc23)ccn1 [Compound 385, (exo)-N-{6-[4-(2-methoxypyridin-4-yl)-1H-indazol-7-yl]pyridazin-3-yl}-N-methyl-8-azabicyclo[3.2.1]octan-3-amine]",,,,< 2,> 5,,,,,,,,,,
"CN(c1ccc(-c2ccc(-c3cnn(C)c3)c3cn[nH]c23)nn1)[C@@H]1C[C@H]2CC[C@@H](C1)N2 [Compound 386, (exo)-N-methyl-N-{6-[4-(1-methylpyrazol-4-yl)-1H-indazol-7-yl]pyridazin-3-yl}-8-azabicyclo[3.2.1]octan-3-amine]",,,,< 2,> 5,< 0.1,< 0.1,< 0.1,,,,,,,
COc1nc(-c2ccc(NC3CCNCC3)nc2)ccc1-c1cnn(C)c1 [Compound 986],,,,,,,,,0.1 to 1,1 to 10,0.1 to 1,1 to 10,1 to 10,1 to 10,1 to 10
COc1nc(-c2ccc(NC3CCNCC3)nc2)ccc1-n1cccn1 [Compound 987],,,,,,,,,1 to 10,> 10,> 10,1 to 10,1 to 10,> 10,> 10
COc1nc(-c2ccc(NC3CCNCC3)nc2)ccc1-c1cnn(C)n1 [Compound 988],,,,,,,,,0.1 to 1,> 10,1 to 10,1 to 10,1 to 10,1 to 10,> 10
COc1nc(-c2ccc(OC3CC(C)(C)NC(C)(C)C3)nc2)ccc1-c1cn[nH]c1 [Compound 989],,,,,,,,,0.1 to 1,1 to 10,0.1 to 1,0.1 to 1,1 to 10,0.1 to 1,1 to 10
COc1nc(-c2ccc(OC3CC(C)(C)NC(C)(C)C3)nc2)ccc1-n1cccn1 [Compound 991],,,,,,,,,> 10,> 10,1 to 10,1 to 10,> 10,> 10,> 10
COc1nc(-c2ccc(OC3CC(C)(C)NC(C)(C)C3)nc2)ccc1-c1cnn(C)n1 [Compound 992],,,,,,,,,1 to 10,> 10,0.1 to 1,1 to 10,1 to 10,1 to 10,> 10
COc1nc(-c2ccc(N(C)C3CC(C)(C)NC(C)(C)C3)nc2)ccc1-c1cn[nH]c1 [Compound 993],,,,,,,,,< 0.1,0.1 to 1,< 0.1,0.1 to 1,0.1 to 1,< 0.1,0.1 to 1
COc1nc(-c2ccc(N(C)C3CC(C)(C)NC(C)(C)C3)nc2)ccc1-c1cnn(C)c1 [Compound 994],,,,,,,,,1 to 10,0.1 to 1,0.1 to 1,0.1 to 1,1 to 10,0.1 to 1,0.1 to 1
COc1nc(-c2ccc(N(C)C3CC(C)(C)NC(C)(C)C3)nc2)ccc1-n1cccn1 [Compound 995],,,,,,,,,1 to 10,> 10,1 to 10,1 to 10,1 to 10,1 to 10,> 10
COc1nc(-c2ccc(N(C)C3CC(C)(C)NC(C)(C)C3)nc2)ccc1-c1cnn(C)n1 [Compound 996],,,,,,,,,0.1 to 1,1 to 10,0.1 to 1,0.1 to 1,1 to 10,0.1 to 1,1 to 10
COc1nc(-c2ncc(N(C)[C@@H]3C[C@H]4CC[C@@H](C3)N4)cn2)ccc1-c1cn[nH]c1 [Compound 997],,,,,,,,,> 10,> 10,> 10,> 10,> 10,> 10,> 10
COc1nc(-c2ccc(N3CCC(NC4CC4)C3)nn2)ccc1-c1cn[nH]c1 (stereo not shown) [Compound 998],,,,,,,,,0.1 to 1,> 10,0.1 to 1,1 to 10,> 10,0.1 to 1,> 10
COc1nc(-c2ccc(OC3CC(C)(C)NC(C)(C)C3)nn2)cnc1-c1cn[nH]c1 [Compound 999],,,,,,,,,0.1 to 1,1 to 10,1 to 10,> 10,1 to 10,1 to 10,1 to 10
